This is an account of results in patent US20220144823A1, “PYRAZOLOPYRIDINE DERIVATIVES AS INHIBITORS OF PASK” (Galapagos NV, priority 2019, published 2022).

A word on the IC50: it is the concentration that gives 50% inhibition.

Experiment [1] addresses T1, human PASK (Homo sapiens, UniProt Q96RG2).
T1 construct: purchased ThermoFisher Scientific PR7013A
In words: 33P radioactive kinase assay. The class given is biochemical. The settings on record: 33P radioactive PASK kinase assay, 10 μM ATP, ZIPtide 1 μM. The essentials: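 Human PASK phosphorylation of ZIPtide peptide was measured by incorporation from [^33P]-ATP plus unlabelled ATP, with a 10-point, 1/5 dilution series from 0.2 or 2 mM DMSO stocks and 1% DMSO final. Reactions were stopped with phosphoric acid, filter-harvested, washed and scintillation-counted. Percentage inhibition gave dose–response curves and averaged IC50s.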

Experiment [2] concerns the target T1, human PASK. In words: ADP-Glo kinase assay. The settings on record: ADPGlo PASK kinase assay, 25 μM ATP, ZIPtide 25 μM. Format: biochemical. The essentials:
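Human recombinant PASK phosphorylating ZIPtide peptide with ATP, 120 min at RT; compounds in 10-point 1/5 dilution series, 1% DMSO final. ADP formed measured by ADP-Glo luminescence after ATP depletion; percent inhibition fitted to dose-response curves for averaged IC50.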
(ADP-Glo turns the ADP formed in a reaction into a luminescent signal.)

In experiment [3] the target is T2, autophosphorylation of PASK at position Thr307 in Hek293 cells overexpressing PASK (Homo sapiens, UniProt Q96RG2).
T2 construct: expressed in transfected cells; host or cells: Hek293
In words: PASK autophosphorylation ELISA assay. The class given is cell-based. The settings on record: 24 h, ELISA readout. The procedure:
The compounds of the invention are profiled in a cellular assay to determine their capacity to reduce the autophosphorylation levels of PASK at position Thr307 in Hek293 cells overexpressing PASK, using an ELISA-based readout.
At day 1, a 96-well cell assay plate is coated with poly-D-lysine (50 μL/well of a 0.05 mg/mL solution in PBS) and incubated for 1 h at 37° C. The plate is subsequently washed once with PBS and stored dry at RT until further use. Hek293 cells are transfected with a pcDNA3.1-PASK(FL,WT)-FLAG construct (SEQ ID1) and seeded in culture medium (DMEM+10% FBS) in a poly-D-lysine coated 96-well plate (0.3 μL JetPEI DNA transfection reagent (Polyplus-transfection SA, Cat #101-40), 10 ng construct and 90 ng pBluescript, 60000 cells per well). […] The cell plate is incubated overnight at 37° C., 5% CO2.
At day 2, the medium of the assay plate is removed and 100 μL of fresh medium (DMEM+10% FBS) is added to the plate. Cell plate is further incubated overnight at 37° C., 5% CO2. This to allow further expression of PASK protein.
At day 3, the medium is removed and replaced with 100 μL of serum free medium (DMEM). Test compound is added to the plate (8 points concentration curve with 1/3 dilution steps starting from 30 μM final concentration in 0.3% DMSO final). In the positive and negative control wells of the plate, 0.3% DMSO final is added. For each tested condition, duplicates are made for ELISA readout. Cell plate is incubated 24 h at 37° C., 5% CO2.
At day 4, the medium is removed and the plate is washed once with 100 μL/well PBS. Cells are lysed by adding 50 μL/well western blot lysis buffer (20 mM Tris pH 7.5, 150 mM NaCl and 1% Triton) to the plate. The assay plate is stored at −80° C. and thawed to perform the ELISA readout.
At day 1, the ELISA plate is coated with the mouse anti-FLAG antibody (2 μg/mL diluted in PBS, 100 μL/well) and incubated overnight at 4° C.
At day 2, the plate is washed once with 150 μL/well PBS. 200 μL/well blocking buffer (PBS with 3% BSA) is added and the plate is incubated for 4 h at RT. The plate is washed with 150 μL/well high salt washing buffer (20 mM Na2HPO4, 0.5% Triton X-100, 0.1% SDS, 0.1% BSA and 1 M NaCl) followed by one wash with 150 μL/well low salt washing buffer (20 mM Na2HPO4, 0.5% Triton X-100, 0.1% SDS, 0.1% BSA and 150 mM NaCl). Meanwhile, the cell lysate plate is thawed, two wells of the same condition are pooled (2×50 μL) and added to the ELISA plate. The ELISA plate is incubated overnight at 4° C.
At day 3, the ELISA plate is washed twice with 150 μL/well high salt washing buffer followed by two washes with low salt washing buffer. 100 μL/well detection antibody for pPASK (phospho-Akt substrate (RXXS*/T*) (110B7E) rabbit antibody (Cell Signaling Technology, Inc., Cat #9614) 2 μg/mL diluted in PBS with 3% BSA and 1×Halt™ protease and phosphatase inhibitor cocktail (Thermo Fisher Scientific, Inc., Cat #78447)) is added and incubated for 2 h at RT. The plate is washed twice with high and low salt wash buffer (150 μL/well) and 100 μL/well of an HRP antibody (swine anti-rabbit HRP antibody (Agilent Technologies, Inc., Cat #P039901) diluted 1/2000 in PBS with 3% BSA and 1×Halt™ protease and phosphatase inhibitor cocktail) is added to the plate, followed by an incubation for 1 h at RT in the dark (plate sealed with aluminum seal). The plate is washed twice with high and low salt wash buffer (150 μL/well) and 100 μL/well of SuperSignal™ ELISA Pico Chemiluminescent Substrate (Thermo Fisher Scientific, Inc., Cat #37070)(premix part 1 and part 2, 1/1) is added. The plate is incubated for 4 min at RT before measuring luminescence on the Luminoskan™ Ascent (Thermo Fisher Scientific, Inc.) (PMT default voltage; 100 ms integration time). […]
For orientation: An ELISA detects its analyte on a solid surface through an enzyme-linked reagent.

SMILES strings stand for the structures.

T2 sequence (Q96RG2 with tags, fused parts or gaps): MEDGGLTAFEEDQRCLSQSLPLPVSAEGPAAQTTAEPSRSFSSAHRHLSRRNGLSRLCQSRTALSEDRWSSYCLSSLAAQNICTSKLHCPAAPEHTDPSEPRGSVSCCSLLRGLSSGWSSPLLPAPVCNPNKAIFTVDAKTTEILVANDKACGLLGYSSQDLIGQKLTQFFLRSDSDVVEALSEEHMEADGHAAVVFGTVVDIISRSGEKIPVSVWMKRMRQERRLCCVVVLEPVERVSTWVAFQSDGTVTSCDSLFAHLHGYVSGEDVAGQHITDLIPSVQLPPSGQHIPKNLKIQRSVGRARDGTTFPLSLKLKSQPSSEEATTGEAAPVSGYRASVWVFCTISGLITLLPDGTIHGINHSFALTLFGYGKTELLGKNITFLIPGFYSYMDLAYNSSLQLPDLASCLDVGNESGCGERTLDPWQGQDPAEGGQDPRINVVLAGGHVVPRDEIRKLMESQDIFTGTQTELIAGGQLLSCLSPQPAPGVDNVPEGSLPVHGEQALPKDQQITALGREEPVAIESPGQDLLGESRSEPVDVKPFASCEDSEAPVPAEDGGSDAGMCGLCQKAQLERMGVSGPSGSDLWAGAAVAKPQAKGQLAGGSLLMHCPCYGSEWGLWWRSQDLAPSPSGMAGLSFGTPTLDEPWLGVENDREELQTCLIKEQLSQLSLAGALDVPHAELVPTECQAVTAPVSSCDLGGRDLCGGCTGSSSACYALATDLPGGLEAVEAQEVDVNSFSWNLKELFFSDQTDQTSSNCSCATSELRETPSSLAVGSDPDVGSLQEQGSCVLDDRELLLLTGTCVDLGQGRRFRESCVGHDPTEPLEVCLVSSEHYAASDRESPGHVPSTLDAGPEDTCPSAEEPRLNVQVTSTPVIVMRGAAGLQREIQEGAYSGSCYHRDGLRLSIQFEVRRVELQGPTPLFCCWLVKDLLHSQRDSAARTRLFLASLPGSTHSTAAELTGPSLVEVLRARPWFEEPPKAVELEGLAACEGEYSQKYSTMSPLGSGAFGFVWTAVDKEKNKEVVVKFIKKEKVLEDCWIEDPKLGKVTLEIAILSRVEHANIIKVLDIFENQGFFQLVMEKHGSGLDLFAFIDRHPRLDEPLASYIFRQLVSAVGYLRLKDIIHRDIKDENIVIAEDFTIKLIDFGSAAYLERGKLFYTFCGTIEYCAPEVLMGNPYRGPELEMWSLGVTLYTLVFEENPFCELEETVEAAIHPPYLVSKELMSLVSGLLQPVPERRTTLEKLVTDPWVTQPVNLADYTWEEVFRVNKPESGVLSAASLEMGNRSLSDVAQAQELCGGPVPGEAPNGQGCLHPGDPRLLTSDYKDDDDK
T1 sequence (Q96RG2 whole entry): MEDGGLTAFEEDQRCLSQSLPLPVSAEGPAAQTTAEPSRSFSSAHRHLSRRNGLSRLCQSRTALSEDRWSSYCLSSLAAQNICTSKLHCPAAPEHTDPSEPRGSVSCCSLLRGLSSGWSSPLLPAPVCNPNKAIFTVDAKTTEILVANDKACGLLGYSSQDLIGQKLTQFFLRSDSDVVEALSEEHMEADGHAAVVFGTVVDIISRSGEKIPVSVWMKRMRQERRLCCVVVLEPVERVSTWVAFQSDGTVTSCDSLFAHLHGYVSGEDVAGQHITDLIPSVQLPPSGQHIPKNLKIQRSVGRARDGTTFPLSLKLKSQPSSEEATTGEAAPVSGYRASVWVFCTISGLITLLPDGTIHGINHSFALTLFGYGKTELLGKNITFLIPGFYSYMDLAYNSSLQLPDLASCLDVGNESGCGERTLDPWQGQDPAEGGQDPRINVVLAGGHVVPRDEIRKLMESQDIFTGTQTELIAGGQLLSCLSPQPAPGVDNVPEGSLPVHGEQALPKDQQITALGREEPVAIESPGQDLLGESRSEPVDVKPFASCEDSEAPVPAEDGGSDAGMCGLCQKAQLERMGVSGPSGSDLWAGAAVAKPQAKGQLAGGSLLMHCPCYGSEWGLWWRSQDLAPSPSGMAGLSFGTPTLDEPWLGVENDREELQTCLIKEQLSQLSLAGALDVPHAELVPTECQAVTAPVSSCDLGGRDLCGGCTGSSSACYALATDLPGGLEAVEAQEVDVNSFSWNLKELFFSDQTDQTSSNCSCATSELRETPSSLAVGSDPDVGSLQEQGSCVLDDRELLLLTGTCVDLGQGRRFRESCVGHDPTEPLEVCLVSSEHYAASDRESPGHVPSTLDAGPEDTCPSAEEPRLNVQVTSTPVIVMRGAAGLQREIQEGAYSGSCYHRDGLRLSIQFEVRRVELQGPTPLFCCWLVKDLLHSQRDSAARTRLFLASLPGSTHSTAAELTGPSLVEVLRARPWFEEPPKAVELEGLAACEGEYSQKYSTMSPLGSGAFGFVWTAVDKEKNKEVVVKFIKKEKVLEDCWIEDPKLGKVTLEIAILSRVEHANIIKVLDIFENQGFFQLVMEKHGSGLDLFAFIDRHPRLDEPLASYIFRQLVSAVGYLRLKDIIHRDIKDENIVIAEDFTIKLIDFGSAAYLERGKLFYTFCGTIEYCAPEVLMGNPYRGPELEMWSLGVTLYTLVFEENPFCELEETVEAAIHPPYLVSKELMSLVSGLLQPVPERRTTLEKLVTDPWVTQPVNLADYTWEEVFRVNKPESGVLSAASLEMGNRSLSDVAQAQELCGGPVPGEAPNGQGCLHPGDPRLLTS

Consider `Cc1nn(CC(F)(F)F)c(C)c1-c1cnn2ccc(-c3cc(C(=O)O)co3)cc12` [Cpd 40, 5-[3-[3,5-dimethyl-1-(2,2,2-trifluoroethyl)pyrazol-4-yl]pyrazolo[1,5-a]pyridin-5-yl]furan-3-carboxylic acid], for which the IC50 in experiment [1] lay in the range of 0.01 to 10 nM; in experiment [2], 0.01 to 10 nM; in experiment [3], 1000 to 5000 nM.

For the molecule `CCn1nc(C)c(-c2cnn3ccc(-c4nc(C5CC5)c(C(=O)O)s4)cc23)c1C` [Cpd 38, 4-cyclopropyl-2-[3-(1-ethyl-3,5-dimethyl-pyrazol-4-yl)pyrazolo[1,5-a]pyridin-5-yl]thiazole-5-carboxylic acid], the IC50 in experiment [1] lay within 0.01 to 10 nM; in experiment [2], 0.01 to 10 nM; in experiment [3], 0.1 to 500 nM.

Consider `Cc1noc(C)c1-c1cnn2ccc(-c3cc(C(=O)O)c(C4CC4)o3)cc12` [Cpd 32, 2-cyclopropyl-5-[3-(3,5-dimethylisoxazol-4-yl)pyrazolo[1,5-a]pyridin-5-yl]furan-3-carboxylic acid], for which the figures for the 50% inhibitory concentration (IC50) in experiment [1], in experiment [2] and in experiment [3] were 0.01 to 10 nM, 0.01 to 10 nM and 1000 to 5000 nM, respectively.

`Cc1nn(C(C)C)c(C)c1-c1cnn2ccc(-c3nc(C4CC4)c(C(=O)O)s3)cc12` [Cpd 39, 4-cyclopropyl-2-[3-(1-isopropyl-3,5-dimethyl-pyrazol-4-yl)pyrazolo[1,5-a]pyridin-5-yl]thiazole-5-carboxylic acid]: the IC50 in experiment [1] is 0.01 to 10 nM; in experiment [2], 0.01 to 10 nM; in experiment [3] it was 0.1 to 500 nM.

As to `Cc1nn(CC(F)(F)F)c(C)c1-c1cnn2ccc(-c3nc(C4CC4)c(C(=O)O)s3)cc12` [Cpd 42, 4-cyclopropyl-2-[3-[3,5-dimethyl-1-(2,2,2-trifluoroethyl)pyrazol-4-yl]pyrazolo[1,5-a]pyridin-5-yl]thiazole-5-carboxylic acid], the IC50 in experiment [1] was 0.01 to 10 nM; in experiment [2], 0.01 to 10 nM; in experiment [3], 0.1 to 500 nM.

Regarding `Cc1nn(C)c(C)c1-c1cnn2ccc(-c3cc(C(N)=O)co3)cc12` [Cpd 43, 5-[3-(1,3,5-trimethylpyrazol-4-yl)pyrazolo[1,5-a]pyridin-5-yl]furan-3-carboxamide], the figures for the IC50 in experiment [1], in experiment [2] and in experiment [3] were 0.01 to 10 nM, 0.01 to 10 nM and 1000 to 5000 nM, respectively.

Turning to `Cc1nn(C(F)F)c(C)c1-c1cnn2ccc(-c3cc(C(=O)O)co3)cc12` [Cpd 35, 5-[3-[1-(difluoromethyl)-3,5-dimethyl-pyrazol-4-yl]pyrazolo[1,5-a]pyridin-5-yl]furan-3-carboxylic acid], the results for the IC50 in experiment [1], in experiment [2] and in experiment [3] were 0.01 to 10 nM, 0.01 to 10 nM and 1000 to 5000 nM, respectively.

`Cc1nn(C)c(C)c1-c1cnn2ccc(-c3cc(C(=O)O)co3)cc12` [Cpd 2, 5-[3-(1,3,5-trimethylpyrazol-4-yl)pyrazolo[1,5-a]pyridin-5-yl]furan-3-carboxylic acid]: the 50% inhibitory concentration (IC50) was 0.01 to 10 nM in experiment [1], 0.01 to 10 nM in experiment [2] and 500 to 1000 nM in experiment [3].
